For data set [1] the following is noted: enzyme bond, 37.0 °C.
Data set [2] relates to butelase-1. The data set can be described thus: Kinetics of peptide cyclization by butelase-1. Type of data set: biochemical, Clitoria ternatea. As to conditions: for Kcat / Km: cyclization by butelase-1, 37° C., PBS pH 6.5. The protocol:
(§1) Enzyme-meditated cyclization and ligation reactions were performed in 20 mM PBS buffer (pH 6.5) at 37° C. with 0.5 mM TCEP. The reaction was quenched by adding 20% TFA. The enzyme concentration was determined by the absorbance at 280 nm using Nanodrop. The reactions were monitored by reverse-phase analytical HPLC, and the products were characterized by MALDI-MS or ESI-MS.
(§2) Model peptides (1-6, see Table 51) were used in the kinetic studies. The cyclization reaction was performed in 20 mM PBS buffer (pH 6.5) containing 0.5 mM TCEP, at 37° C. The reaction was monitored by analytical RP-HPLC (5% buffer B-45% buffer B in 20 min). Kinetic constants for these peptides were obtained from the initial reaction rates. To ensure that the measurement of reaction rate was in the range of the initial velocity, the reaction was quenched using 20% TFA, when less than 25% of the substrate has been converted. Each recorded value is an average of measurements in triplicate. All the numbers were input into GraphPad Prism (GraphPad Software, San Diego) to obtain the Michaelis-Menten curve and calculate the kinetic parameters (kcat and Km).
Plant flowers of Clitoria ternatea grown in the Nanyang Technological University Herb Garden were collected. Butelase-1 was extracted using a chromatography method described previously.^5 Purified butelase-1 was obtained and stored at 4° C. or −80° C. in 50 mM sodium phosphate buffer (pH 6.0) containing 1 mM EDTA, 5 mM β-mercaptoethanol, 0.01% Tween 20 and 20% sucrose.

Data set [3] relates to butelase-1. Nature of the data set: Inhibitory activity assay of AN(Me)12-HV 7 on butelase-1 cyclization of pB1 peptide. Type of data set: biochemical, Clitoria ternatea. As to conditions: 200 μM pB1, 0.001 eq butelase-1, pH 6.5, 37° C., 10 min; increasing concentration of peptide 7. The protocol: FIG. 7. Inhibitory activity assay of AN(Me)12-HV 7. (a) RP-HPLC trace for cyclization of pB1 peptide ([…]; SEQ ID NO:13). The cyclization reaction was performed at 37° C. in the present of 200 μM of peptide substrates and 0.001 eq of butelase-1 in 20 mM PBS (pH 6.5) for 10 min. The reactions were monitored by RP-HPLC. The cyclic peptide is labelled as c[pB1] and starred HPLC peak is the potentially inhibitory peptide AN(Me)12-HV 7. […] (b) MALDI profiles of pB1 and AN(Me)12-HV 7 before and after treatment with butelase-1.
Sequence of butelase-1 (as listed by the source): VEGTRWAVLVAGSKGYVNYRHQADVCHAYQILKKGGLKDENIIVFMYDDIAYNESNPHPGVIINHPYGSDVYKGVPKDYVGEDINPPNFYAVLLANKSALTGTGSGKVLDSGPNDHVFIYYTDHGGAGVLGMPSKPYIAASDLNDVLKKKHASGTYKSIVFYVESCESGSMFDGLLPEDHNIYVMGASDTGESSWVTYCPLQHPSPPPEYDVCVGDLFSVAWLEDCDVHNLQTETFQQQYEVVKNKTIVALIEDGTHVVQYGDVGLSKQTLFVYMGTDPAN
as §1

For another data set, the system named is VyPAL2. The data set can be described thus: Kinetics of peptide cyclization by VyPAL2. The class given is biochemical. Particulars: for Kcat / Km: cyclization by VyPAL2, 37° C., PBS pH 6.5. The protocol:
as §1, §2
VyPAL2 was expressed using sf9 insect cells as described previously (Hemu et al. PNAS, 2019, 116, 11737-11746). 100 mL of the viral vector containing VyPAL2 gene was used to infect sf9 cells at cell density of 2.5×10^6 cells/mL. MOI for infection was set between 1-10 for protein expression. The culture was incubated at 27° C. shaker for 3 days (72 hours) at 135 rpm. Protein purification was performed in three steps: Immobilized Metal Affinity Chromatography (IMAC), Ion-Exchange Chromatography (IEX), and Size-Exclusion chromatography (SEC). Pro-VyPAL2 was activated at pH 5 in 50 mM sodium citrate buffer (0.1 M NaCl, 1 mM DTT, 0.5 mM LS) for 2-3 h at 37° C. After activation, the activated enzyme was purified by SEC at pH 6.5 (20 mM PBS, 0.1 M NaCl, 1 mM DTT).

The target of another data set is T1, MMP2 (Homo sapiens, UniProt P08253).
T1 construct: purchased Sigma-Aldrich
T1 sequence (P08253 110-660): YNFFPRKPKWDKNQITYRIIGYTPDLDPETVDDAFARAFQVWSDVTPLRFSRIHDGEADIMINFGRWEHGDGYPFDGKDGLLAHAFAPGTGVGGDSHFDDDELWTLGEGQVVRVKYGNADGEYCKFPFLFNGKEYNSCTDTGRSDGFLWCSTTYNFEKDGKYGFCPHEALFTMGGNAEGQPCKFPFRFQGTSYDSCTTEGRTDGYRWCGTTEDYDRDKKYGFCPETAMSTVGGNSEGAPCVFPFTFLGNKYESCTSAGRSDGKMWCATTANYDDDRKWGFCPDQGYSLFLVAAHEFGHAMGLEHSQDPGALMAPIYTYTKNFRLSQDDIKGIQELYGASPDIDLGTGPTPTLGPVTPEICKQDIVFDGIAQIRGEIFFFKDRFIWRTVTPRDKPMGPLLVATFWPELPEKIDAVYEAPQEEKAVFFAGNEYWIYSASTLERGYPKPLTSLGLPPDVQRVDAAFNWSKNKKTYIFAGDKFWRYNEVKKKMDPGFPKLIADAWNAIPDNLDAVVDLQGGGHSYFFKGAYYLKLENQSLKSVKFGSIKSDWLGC
Nature of the data set: MMPs inhibition assay (FRET substrate), MMP2. The class given is biochemical. Here is the method: The inhibitory activity of the peptides was determined by measuring the MMPs' protease activity towards a FRET substrate. 0.8 nM MMP2 or MMP9 (Sigma-Aldrich), 10 μM substrate (FAM-Lys-Pro-Leu-Gly-Leu-Lys(Dabcyl)-Ala-Arg-NH2, λex 490 nm; λem 520 nm) and various concentrations of the peptides (0.0001 μM-10 μM or 0.001 μM-100 μM) were used. The reactions were performed in 50 mM Tris-HCl buffer (pH 7.5) containing 150 mM NaCl, 10 mM CaCl2, 0.05% Brij35, at 37° C. MMP2 was pre-incubated with the peptide inhibitors for 10 min before adding the substrate. All the numbers were input into GraphPad Prism (GraphPad Software, San Diego) for IC50 calculation.

The nature of data set [4]: Stability in human serum by HPLC analysis. Type of data set: in vitro ADME. Particulars: 37° C. The protocol: Peptides were mixed with human serum to a final concentration of 100 μM and incubated at 37° C. Aliquots of the sample were taken out at different time points and 10% TFA was added to quench all protease activities, followed by addition of 10% of DMSO. The solution mixture was centrifuged (11,000 g, 5 min, 4° C.) and the supernatant was analysed by RP-HPLC (15% buffer B-65% buffer B in 25 min) and ESI-MS. The quantity of the remaining peptides was determined by comparing their HPLC peak area with the initial peak area.

Where [5] appears, read: the molecule shown is the open-chain precursor, 102-membered ring, butelase-1 (0.01 eq), 20 mM PBS pH 6.5, 0.4 mM.

“Also recorded” adds a separate entry of the source. Read-outs that look alike come from different tables or passages of the source. Starred links: 1 amine or outer side, 2 acyl side, 3 side chain; linkers in the order of their positions; H or OH if unused. Positions of bridges follow the written chain, without caps; N, C: chain ends. Non-standard residues stand in square brackets, D forms with d. Residues, ends and D or L forms follow the SMILES beside them. No end group written: not given here. *: point of attachment. N(OH) = N-hydroxy-L-asparagine, O=C(C[C@H](N[*:1])C(=O)[*:2])NO; NHOH = ON*

Sequence of VyPAL2 (as listed by the source): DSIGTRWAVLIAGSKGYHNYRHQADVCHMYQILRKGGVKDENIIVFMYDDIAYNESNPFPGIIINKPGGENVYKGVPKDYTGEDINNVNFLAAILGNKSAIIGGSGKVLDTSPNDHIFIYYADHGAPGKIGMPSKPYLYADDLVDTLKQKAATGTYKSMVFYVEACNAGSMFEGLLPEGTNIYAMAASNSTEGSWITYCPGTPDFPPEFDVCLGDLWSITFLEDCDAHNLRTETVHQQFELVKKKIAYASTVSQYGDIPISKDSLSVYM

cyclo[SYCN(OH)CLCRRGVCRCICTI]: in data set [1] (54-membered ring, butelase-1 (0.04 eq), PBS pH 6.5, 0.1 mM), the ring closure, conversion came to 60%.
For AIYRRGRLYRRN(Me) HV [Peptide 7], the “recognition by butelase-1 as substrate for cyclization” value with butelase-1 [2] is “not recognized”. Also, the “inhibition of butelase-1 cyclization of pB1 peptide” value in the data set on butelase-1 [3] is “nor did it inhibit the cyclization; also recorded: didn't affect the cyclization rate of pB1”.
As to “AIYRRGRLYRRN(OH)SL (AIYRRGRLYRR[N(OH)]SL-NH2) [Peptide 5]”, in the data set on VyPAL2, the “catalytic efficiency of VyPAL2, fold higher than DSL peptide 6” value is given as 28 fold; the “catalytic efficiency of VyPAL2, fold lower than NSL peptide 4” value was about 14 fold; the Kcat is 0.942 ± 0.082 s⁻¹; the Michaelis constant (Km) amounted to 120 ± 19.2 µM.
On to “H-Gly-Gly-Val-Cys-Pro-Lys-Ile-Leu-Lys-Lys-Cys-Arg-Arg-Asp-Ser-Asp-Cys-Pro-Gly-Ala-Cys-Ile-Cys-Arg-Gly-Asn-Gly-Tyr-Cys-Gly-Ser-Gly-Ser-Asp-Ile-Val-NH2?”, for which, in data set [1] (setting [5]), the ring closure, conversion stood at 0%.
On to `CC[C@H](C)[C@@H]1NC(=O)[C@H](CO)NC(=O)CNC(=O)[C@@H]2CCCN2C(=O)[C@H](CCSC)NC(=O)[C@H](CC(C)C)NC(=O)[C@H](C)NC(=O)[C@H](CC(=O)NO)NC(=O)[C@H](CCC(N)=O)NC(=O)CNC(=O)[C@H](Cc2ccc(O)cc2)NC(=O)[C@H](CO)NC1=O` [Peptide 11, cyclo[SISYGQN(OH)ALMPG]] (cyclo(ALMPGSISYGQD(NHOH))), for which the half-maximal inhibitory concentration (IC50) at MMP2 (APP-IP-derived peptides, 0.8 nM MMP2, 10 μM substrate, pH 7.5, 37° C., read-out: IC50 towards MMP2) was over 100 µM. Further, at MMP2 (APP-IP-derived peptides, Ki=IC50/(1+[S]o/Km), read-out: Ki towards MMP2), the Ki was over 100 µM.
Regarding `CC[C@H](C)[C@H](N)C(=O)N[C@@H](CO)C(=O)N[C@@H](Cc1ccc(O)cc1)C(=O)NCC(=O)N[C@@H](CC(N)=O)C(=O)N[C@@H](CC(=O)NO)C(=O)N[C@@H](C)C(=O)N[C@@H](CC(C)C)C(=O)N[C@@H](CCSC)C(=O)N1CCC[C@H]1C(N)=O` [Peptide 9, ISYGNN(OH)ALMP] (H-ISYGND(NHOH)ALMP-NH2), the “improvement of MMP2 inhibitory activity over APP-IP 8” value at MMP2 (replacement of Asp by Asn(OH)) was 2.6 fold.
For the compound AIYRRGRLYRRDHV [Peptide 3], in the data set on butelase-1 [2], the Kcat was found to be 0.454 ± 0.02 s⁻¹ and the Michaelis-Menten constant (Km) was 630 ± 19.5 µM.
As for “H-Gly-Arg-Cys-Thr-Lys-Ser-Ile-Pro-Pro-Ile-Cys-Phe-Pro-Asp-Ile-Val-NH2?”, in data set [1] (the molecule shown is the open-chain precursor, 42-membered ring, butelase-1 (0.01 eq), 20 mM PBS pH 6.5, 0.4 mM), the ring closure, conversion is 0%.
AIYRRGRLYRRNHV [Peptide 1]: in the data set on butelase-1 [2], the Kcat worked out at 14.86 ± 0.34 s⁻¹ and the Michaelis constant (Km) was determined as 67.5 ± 2.8 µM.
As to AIYRRGRLYRRNSL [Peptide 4], in the data set on VyPAL2, the Kcat turned out to be 4.56 ± 0.24 s⁻¹ and the Km is 42.5 ± 8.83 µM.
Consider c[FLaRGN(OH)FLaRGN(OH)], for which the ring closure, conversion in data set [1] (36-membered ring, butelase-1 (0.01 eq), 20 mM PBS pH 6.5, 0.4 mM) was determined as 90%.
With “AIYRRGRLYRRN(OH)HV (AIYRRGRLYRR[N(OH)]HV-NH2) [Peptide 2]”, in the data set with butelase-1 [2], the “catalytic efficiency of butelase-1, fold higher than DHV peptide 3” value came to 48 fold; the “catalytic efficiency of butelase-1, fold lower than NHV peptide 1” value is about 6 fold; the Kcat came to 3.46 ± 0.27 s⁻¹; the Km was 98.8 ± 17.8 µM.
With `CC[C@H](C)[C@@H]1NC(=O)[C@@H]2CSSC[C@H](NC(=O)[C@H](CC(=O)NO)NC(=O)[C@@H]3CSSC[C@H](NC1=O)C(=O)N[C@@H]([C@@H](C)O)C(=O)N[C@@H]([C@@H](C)CC)C(=O)N[C@@H](CO)C(=O)N[C@@H](Cc1ccc(O)cc1)C(=O)N3)C(=O)N[C@@H](CC(C)C)C(=O)N[C@H]1CSSC[C@H](NC(=O)[C@H](C(C)C)NC(=O)CNC(=O)[C@H](CCCNC(=N)N)NC(=O)[C@H](CCCNC(=N)N)NC1=O)C(=O)N[C@@H](CCCNC(=N)N)C(=O)N2` [Peptide 17] (cyclo(CD(NHOH)CLCRRGVCRCICTISY); disulfide 1-14, 3-12, 5-10 (inferred); ring closure inferred), in data set [4] (after 16 h), the “stability in human serum” value is on record as “remained intact”. In addition, on MMP2, the Ki came to 0.0028 µM, the “better MMP2 binding affinity than Asn-RTD-1 19” value is reported as 13 fold, the “better MMP2 binding affinity than Asp-RTD-1 18” value is recorded as 2.3 fold and the “improvement of MMP2 Ki over linear Asn(OH)-APP-IP peptide 9” value was found to be 8.2 fold. Further, at MMP2 (MMP2 over MMP9), the “more potent towards MMP2 than MMP9 (selectivity)” value is reported as “about 1000 fold”.
In turn, “H-Gly-Leu-Pro-Val-Cys-Gly-Glu-Thr-Cys-Phe-Gly-Gly-Thr-Cys-Asn-Thr-Pro-Gly-Cys-Ser-Cys-Thr-Trp-Pro-Ile-Cys-Thr-Arg-Asp-Ile-Val-NH2?” showed a ring closure, conversion in data set [1] (the molecule shown is the open-chain precursor, 87-membered ring, butelase-1 (0.01 eq), 20 mM PBS pH 6.5, 0.4 mM) of 0%.
For the compound AIYRRGRLYRRDSL [Peptide 6], in the data set with VyPAL2, the Kcat was 0.581 ± 0.09 s⁻¹ and the Michaelis-Menten constant (Km) turned out to be 2070 ± 407 µM.
As to “ISYGNDALMP-NH2 [Peptide 8, reference compound]”, the metabolised at 32 min, 100 μM in data set [4] (in 32 min, read-out: degradation in human serum) is over 50%. Besides, the Ki at MMP2 was determined as 0.06 µM.
For “H-Gly-Gly-Val-Cys-Pro-Lys-Ile-Leu-Lys-Lys-Cys-Arg-Arg-Asp-Ser-Asp-Cys-Pro-Gly-Ala-Cys-Ile-Cys-Arg-Gly-Asn-Gly-Tyr-Cys-Gly-Ser-Gly-Ser-Asn(OH)-Ile-Val-NH2?”, the ring closure, conversion in data set [1] (setting [5]) worked out at 95%.

Source of the values: patent US12655458B2, “Methods for cyclization of (poly)peptides comprising nγ-hydroxy- or Nγ-amino-L-asparagine” (priority 2021, dated 2026).
